ChEMBL document CHEMBL1125038, “Synthesis and antiinflammatory activity of cis- and trans-6,6a,7,8,9,10,10a,11-octahydro-11-oxodibenzo[b,e]thiepinacetic and -oxepinacetic acids” (J Med Chem, 1990)
Where “and” joins values, the source holds several entries; their conditions need not be identical. Equal values may be shown once.

What was measured:
Rattus norvegicus [1] = experiment: Inhibition of carrageenan hind paw edema in rats after oral administration of a dose of 5 mg/kg; type: functional
Rattus norvegicus [2] = organism: Rattus norvegicus; experiment: The compound was tested for gastric ulcerogenicity in rats; ca. 57; type: functional, Stomach
Rattus norvegicus [3] = experiment: Antiinflammatory activity was determined against rat carrageenan hind paw edema, after oral administration; type: functional
Rattus norvegicus [4] = organism: Rattus norvegicus; experiment: Analgesic activity was determined by measuring the dose required to inhibit acetic acid induced writhing; type: functional
[5] = Safety index is the ratio of UD50 to ED50 in carrageenan hind paw edema; ca. 25; type: toxicity; conditions: read-out: Safety index
Rattus norvegicus [6] = organism: Rattus norvegicus; experiment: The compound was tested for gastric ulcerogenicity in rats; type: functional, Stomach
[7] = The compound was tested for acute toxicity in mice after oral administration; type: organism-based; conditions: mouse, in vivo
[8] = Safety index is the ratio of UD50 to ED50 in carrageenan hind paw edema; type: toxicity; conditions: read-out: Safety index
Rattus norvegicus [9] = experiment: Antiinflammatory activity was determined against rats carrageenan hind paw edema after oral administration; type: functional
Rattus norvegicus [10] = experiment: Antiinflammatory activity was determined against rats carrageenan hind paw edema, after oral administration; ca. 40; type: functional
[11] = Safety index is the ratio of UD50 to ED50 in carrageenan hind paw edema; ca. 20; type: toxicity; conditions: read-out: Safety index
[12] = The compound was tested for acute toxicity in mice after oral administration; ca. 200; type: organism-based; conditions: mouse, in vivo
Rattus norvegicus [13] = organism: Rattus norvegicus; experiment: The compound was tested for gastric ulcerogenicity in rats; ca. 30; type: functional, Stomach
Rattus norvegicus [14] = experiment: Antiinflammatory activity was determined against rat carrageenan hind paw edema after oral administration of a dose of 40 mg/kg
Rattus norvegicus [15] = organism: Rattus norvegicus; experiment: The compound was tested for gastric ulcerogenicity in rats; ca. 8; type: functional, Stomach

CC(C(=O)OCc1ccccc1)c1ccc2c(c1)SCC1CCCCC1C2=O (centres undefined)
inhibition in vivo at 5 mg/kg (Rattus norvegicus [1]): 25.6%

CC(C(N)=O)c1ccc2c(c1)SCC1CCCCC1C2=O (centres undefined)
inhibition in vivo at 5 mg/kg (Rattus norvegicus [1]): 30.5%

CCCCCCOC(=O)C(C)c1ccc2c(c1)SCC1CCCCC1C2=O (centres undefined)
inhibition in vivo at 5 mg/kg (Rattus norvegicus [1]): 28.3%

CC(C(=O)OCC(=O)c1ccccc1)c1ccc2c(c1)SCC1CCCCC1C2=O (centres undefined)
inhibition in vivo at 5 mg/kg (Rattus norvegicus [1]): 26.6%

CC(C(=O)N(C)C)c1ccc2c(c1)SCC1CCCCC1C2=O (centres undefined)
inhibition in vivo at 5 mg/kg (Rattus norvegicus [1]): 2.7%

CCCCCOC(=O)C(C)c1ccc2c(c1)SCC1CCCCC1C2=O (centres undefined)
inhibition in vivo at 5 mg/kg (Rattus norvegicus [1]): 22.1%

CC(C)OC(=O)C(C)c1ccc2c(c1)SCC1CCCCC1C2=O (centres undefined)
inhibition in vivo at 5 mg/kg (Rattus norvegicus [1]): 25.6%

CC(C(=O)OC1CCCCC1)c1ccc2c(c1)SCC1CCCCC1C2=O (centres undefined)
inhibition in vivo at 5 mg/kg (Rattus norvegicus [1]): 15.6%

CCOCCOC(=O)C(C)c1ccc2c(c1)SCC1CCCCC1C2=O (centres undefined)
inhibition in vivo at 5 mg/kg (Rattus norvegicus [1]): 34.6%

CC(C(=O)OCCOCCO)c1ccc2c(c1)SCC1CCCCC1C2=O (centres undefined)
inhibition in vivo at 5 mg/kg (Rattus norvegicus [1]): 28.1%

CC(C)COC(=O)C(C)c1ccc2c(c1)SCC1CCCCC1C2=O (centres undefined)
inhibition in vivo at 5 mg/kg (Rattus norvegicus [1]): 29.3%

CCOC(=O)C(C)c1ccc2c(c1)SCC1CCCCC1C2=O (centres undefined)
UD50 (Rattus norvegicus [2]): 57 mg/kg
inhibition in vivo at 5 mg/kg (Rattus norvegicus [1]): 38.3%
ED50 (Rattus norvegicus [3]; Rattus norvegicus, po, read-out: ED50): 2.24 mg/kg
ED50 (Rattus norvegicus [4]): 0.31 mg/kg
selectivity ratio [5]: 25

CC(C(=O)Oc1ccccc1)c1ccc2c(c1)SCC1CCCCC1C2=O (centres undefined)
inhibition in vivo at 5 mg/kg (Rattus norvegicus [1]): 22%

CC(C(=O)NCc1ccccc1)c1ccc2c(c1)SCC1CCCCC1C2=O (centres undefined)
inhibition in vivo at 5 mg/kg (Rattus norvegicus [1]): -5.5%

CC(C(=O)N1CCCCC1)c1ccc2c(c1)SCC1CCCCC1C2=O (centres undefined)
inhibition in vivo at 5 mg/kg (Rattus norvegicus [1]): 5.3%

CC(C(=O)NCCO)c1ccc2c(c1)SCC1CCCCC1C2=O (centres undefined)
inhibition in vivo at 5 mg/kg (Rattus norvegicus [1]): 22.3%

CC(C(=O)OCc1cccnc1)c1ccc2c(c1)SCC1CCCCC1C2=O (centres undefined)
inhibition in vivo at 5 mg/kg (Rattus norvegicus [1]): 29.9%

CC(C(=O)NO)c1ccc2c(c1)SCC1CCCCC1C2=O (centres undefined)
inhibition in vivo at 5 mg/kg (Rattus norvegicus [1]): 29.9%

CCCOC(=O)C(C)c1ccc2c(c1)SCC1CCCCC1C2=O (centres undefined)
inhibition in vivo at 5 mg/kg (Rattus norvegicus [1]): 25.4%

CC(C(=O)OC/C=C/c1ccccc1)c1ccc2c(c1)SCC1CCCCC1C2=O (centres undefined)
inhibition in vivo at 5 mg/kg (Rattus norvegicus [1]): 20.3%

CC(C(=O)OCCN1CCOCC1)c1ccc2c(c1)SCC1CCCCC1C2=O (centres undefined)
inhibition in vivo at 5 mg/kg (Rattus norvegicus [1]): 22.2%

CC(C(=O)OCCc1ccccn1)c1ccc2c(c1)SCC1CCCCC1C2=O (centres undefined)
inhibition in vivo at 5 mg/kg (Rattus norvegicus [1]): 25.5%

CNC(=O)C(C)c1ccc2c(c1)SCC1CCCCC1C2=O (centres undefined)
inhibition in vivo at 5 mg/kg (Rattus norvegicus [1]): 14.6%

CC(C(=O)N1CCN(C)CC1)c1ccc2c(c1)SCC1CCCCC1C2=O (centres undefined)
inhibition in vivo at 5 mg/kg (Rattus norvegicus [1]): 5.3%

CC(C(=O)NCC(=O)O)c1ccc2c(c1)SCC1CCCCC1C2=O (centres undefined)
inhibition in vivo at 5 mg/kg (Rattus norvegicus [1]): 29.7%

CC(C(=O)OCc1ccccn1)c1ccc2c(c1)SCC1CCCCC1C2=O (centres undefined)
inhibition in vivo at 5 mg/kg (Rattus norvegicus [1]): 30.6%

CC(C(=O)N1CCOCC1)c1ccc2c(c1)SCC1CCCCC1C2=O (centres undefined)
inhibition in vivo at 5 mg/kg (Rattus norvegicus [1]): 7.1%

CCCCOC(=O)C(C)c1ccc2c(c1)SCC1CCCCC1C2=O (centres undefined)
inhibition in vivo at 5 mg/kg (Rattus norvegicus [1]): 26%

CC(C(=O)OCCc1ccccc1)c1ccc2c(c1)SCC1CCCCC1C2=O (centres undefined)
inhibition in vivo at 5 mg/kg (Rattus norvegicus [1]): 39.1%
ED50 (Rattus norvegicus [3]): 3.53 mg/kg and 1.5 mg/kg
UD50 (Rattus norvegicus [6]): >124 mg/kg
LD50 [7]: 644 mg/kg
selectivity ratio [8]: > 35

CC(C(=O)OCCCc1ccccc1)c1ccc2c(c1)SCC1CCCCC1C2=O (centres undefined)
inhibition in vivo at 5 mg/kg (Rattus norvegicus [1]): 26%

CCOC(=O)COC(=O)C(C)c1ccc2c(c1)SCC1CCCCC1C2=O (centres undefined)
inhibition in vivo at 5 mg/kg (Rattus norvegicus [1]): 20.2%

COC(=O)C(C)c1ccc2c(c1)SCC1CCCCC1C2=O (centres undefined)
inhibition in vivo at 5 mg/kg (Rattus norvegicus [1]): 21.6%

C=CCOC(=O)C(C)c1ccc2c(c1)SCC1CCCCC1C2=O (centres undefined)
inhibition in vivo at 5 mg/kg (Rattus norvegicus [1]): 33.5%

O=C(O)Cc1ccc2c(c1)C(=O)[C@H]1CCCC[C@@H]1CO2 (relative stereo)
ED50 (Rattus norvegicus [9]): > 40 mg/kg

O=C(O)Cc1ccc2c(c1)OC[C@H]1CCCC[C@H]1C2=O (relative stereo)
ED50 (Rattus norvegicus [9]): > 40 mg/kg

O=C(O)Cc1ccc2c(c1)C(=O)[C@@H]1CCCC[C@@H]1CS2 (relative stereo)
ED50 (Rattus norvegicus [9]): > 40 mg/kg

O=C(O)Cc1ccc2c(c1)SC[C@H]1CCCC[C@@H]1C2=O (relative stereo)
ED50 (Rattus norvegicus [9]): 3.24 mg/kg

O=C(O)Cc1ccc2c(c1)C(=O)[C@@H]1CCCC[C@@H]1CO2 (relative stereo)
ED50 (Rattus norvegicus [9]): > 40 mg/kg

O=C(O)Cc1ccc2c(c1)C(=O)[C@H]1CCCC[C@@H]1CS2 (relative stereo)
ED50 (Rattus norvegicus [9]): > 40 mg/kg

O=C(O)Cc1ccc2c(c1)SC[C@H]1CCCC[C@H]1C2=O (relative stereo)
ED50 (Rattus norvegicus [9]): > 40 mg/kg

CC(C(=O)O)c1ccc2c(c1)C(=O)[C@H]1CCCC[C@@H]1CS2 (relative stereo)
ED50 (Rattus norvegicus [10]): 40 mg/kg

O=C(O)Cc1ccc2c(c1)OC[C@H]1CCCC[C@@H]1C2=O (relative stereo)
ED50 (Rattus norvegicus [9]): 22.1 mg/kg

CC(C(=O)O)c1ccc2c(c1)OC[C@H]1CCCC[C@@H]1C2=O (relative stereo)
ED50 (Rattus norvegicus [9]): 1.52 mg/kg

CC(C(=O)O)c1ccc2c(c1)OC[C@H]1CCCC[C@H]1C2=O (relative stereo)
ED50 (Rattus norvegicus [9]): > 40 mg/kg

CC(C(=O)O)c1ccc2c(c1)C(=O)[C@@H]1CCCC[C@@H]1CS2 (relative stereo)
ED50 (Rattus norvegicus [9]): > 40 mg/kg

CC(C(=O)O)c1ccc2c(c1)C(=O)[C@@H]1CCCC[C@@H]1CO2 (relative stereo)
ED50 (Rattus norvegicus [9]): > 40 mg/kg

CC(C(=O)O)c1ccc2c(c1)SC[C@H]1CCCC[C@@H]1C2=O (relative stereo)
ED50 (Rattus norvegicus [9]): 1.53 mg/kg
selectivity ratio [11]: 20
LD50 [12]: 200 mg/kg
ED50 (Rattus norvegicus [4]): 0.39 mg/kg
UD50 (Rattus norvegicus [13]): 30 mg/kg

CC(C(=O)O)c1ccc2c(c1)C(=O)[C@H]1CCCC[C@@H]1CO2 (relative stereo)
ED50 (Rattus norvegicus [9]): > 40 mg/kg

CC(C(=O)O)c1ccc2c(c1)SC[C@H]1CCCC[C@H]1C2=O (relative stereo)
ED50 (Rattus norvegicus [9]): > 40 mg/kg

CC(C(=O)O)c1ccc2c(c1)SC[C@H]1CCCC[C@@H]1C2=O (relative stereo; form 1)
ED50 (Rattus norvegicus [14]): 1.89 mg/kg

CC(C(=O)O)c1ccc2c(c1)SC[C@H]1CCCC[C@@H]1C2=O (relative stereo; form 2)
ED50 (Rattus norvegicus [14]): 37.1 mg/kg

COc1ccc2c(c1)c(CC(=O)O)c(C)n2C(=O)c1ccc(Cl)cc1 [INDOMETHACIN]
ED50 (Rattus norvegicus [9]): 3.3 mg/kg
inhibition in vivo at 5 mg/kg (Rattus norvegicus [1]): 36.3%
ED50 (Rattus norvegicus [4]): 0.44 mg/kg
LD50 [7]: 23 mg/kg
UD50 (Rattus norvegicus [15]): 8 mg/kg
selectivity ratio [8]: 2.4
